Data from patent US20180055816A1, “PYRANONAPHTHOQUINONE COMPOUNDS AND METHODS OF USE THEREOF” (University of Kentucky Research Foundation, priority 2016, published 2018).
Entries after “also recorded” stand apart in the source; their conditions may differ.

Tests used:
[1] = test system: p70S6K phosphorylation; assay: p70S6K phosphorylation in HCT116 cells (Western blot); format: cell-based, human; details: HCT116, 12 h; 2 μM FB or UCF76-A, 100 nM rapamycin, 0.5 μM AZD8055
Procedure: (§1) HCT116 cells were treated with 1 μM MK2206 and 100 nM PD0325901 alone and in combination, 100 nM rapamycin, 0.5 μM AZD8055, 2 μM UCF76-A or 2 μM FB for 12 h followed by Western blot analysis for the indicated proteins.
(§2) Cells were lysed in NP-40 lysis buffer (50 mM Tris-HCl, pH 7.5, 150 mM NaCl, 1 mM EDTA, 1% NP-40, 10% glycerol, protease and phosphatase inhibitor cocktail). Western blot analysis were performed using equivalent total protein loadings as described previously. For immunoprecipitation, the cell lysates were incubated with the indicated antibody overnight followed by incubation with a 50% slurry of protein G sepharose beads for 3 h at 4° C. The beads were washed three times with the lysis buffer, and the immunoprecipitated protein complexes were resuspended in 2× Laemmli sample buffer followed by western blot analysis.

[2] = test system: S6 phosphorylation; assay: S6 phosphorylation in HCT116 cells (Western blot); format: cell-based, human; details: HCT116, 12 h; 2 μM FB or UCF76-A, 100 nM rapamycin, 0.5 μM AZD8055
Procedure: as §1, §2

[3] = test system: AKT phosphorylation; assay: AKT phosphorylation in HCT116 cells (Western blot); format: cell-based, human; details: HCT116, 12 h; 2 μM FB or UCF76-A, 0.5 μM AZD8055, 1 μM MK2206
Procedure: as §1, §2

[4] = test system: 4E-BP1 phosphorylation; assay: Inhibition of 4E-BP1 phosphorylation in HCT116 cells (Western blot); format: cell-based, human; details: for inhibition of 4E-BP1 phosphorylation: 12 h
Procedure: (§3) Compounds that pass this single dose filter are then tested in a CRC (HCT116) in vitro cytotoxicity assay and, in parallel, an in vitro assay to assess propensity for intracellular reactive oxygen species (ROS) production using the redox sensitive probe CeIIROX® Deep Red reagent (Invitrogen) by flow cytometry analysis (47).
as §2

[5] = test system: cap-dependent translation; assay: Cap-dependent translation bicistronic luciferase reporter assay in HCT116 cells; format: cell-based, human; details: 12 h
[6] = target: T1, Prx1 (Homo sapiens, UniProt Q06830); assay: Prx1 catalytic activity inhibition; format: biochemical; details: recombinant Prx1, 1 hour incubation
T1 sequence (Q06830 1-199): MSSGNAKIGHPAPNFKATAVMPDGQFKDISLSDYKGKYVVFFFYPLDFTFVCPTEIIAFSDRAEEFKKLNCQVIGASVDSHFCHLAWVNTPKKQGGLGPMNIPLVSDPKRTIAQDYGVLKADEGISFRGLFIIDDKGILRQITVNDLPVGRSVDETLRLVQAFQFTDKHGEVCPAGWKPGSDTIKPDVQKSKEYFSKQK
Procedure: The recombinant Prx1 protein was incubated with the indicated concentration of FB, 12, or conoidin A for 1 hour. Data are presented as mean±s.e.m. (n=3 technical replicates per condition). […]. Statistical significance was determined by the Student's t-test.
Prx1 and Grx3 are antioxidant enzymes known to regulate oxidative stress. Prx1 catalyzes peroxide reduction of H2O2, whereas Grx3 functions as glutathione (GSH)-dependent oxidoreductase by participating in the conversion of reduced GSH to oxidized glutathione disulfide (GSSG). […] While Grx3 biochemical assays are lacking, FB and active analogs could lead to a decrease in GSH levels and an increase in GSSG levels in HCT116 cells (FIGS. 23A-B). As antioxidant enzymes utilize cysteine-containing active sites to reduce various cellular peroxide or disulfide substrates, the role of Prx1/Grx3 cysteines in FB ligand-binding was assessed through replacing their cysteines to alanines. […] Finally, mass spectrometry analysis confirmed the covalent modification of Prx1 and Grx3 by FB at these specific target sites. These cumulative studies provide strong validation of Prx1 and Grx3 as the predominate molecular targets of PNQs in cancer cells.

[7] = test system: HCT116 cells; assay: Apoptosis assay (propidium iodide/Annexin V flow cytometry) in HCT116 cells; format: cell-based, human; details: HCT116, 72 hours
Procedure: (A) HCT116 cells were treated with different concentrations of FB and 12 for 12 hours. Cell lysates were precipitated with m^7GTP sepharose beads followed by Western blot analysis for the indicated proteins. (B) Inhibition of cap-dependent translation activity in HCT116 cells that were treated with the indicated compounds or DMSO as control for 12 hours was determined and analyzed as in FIG. 10A. (C) and (D) HCT116 cells were treated with different concentrations of FB and 12 for 72 hours. Apoptotic cells were analyzed by propidium iodide/Annexin V staining and flow cytometry (C). The results are expressed as the increased levels of apoptosis (D) by subtracting each of the DMSO-treated controls. All graphic data are presented as mean±s.e.m. (n=3 technical replicates per condition). *P<0.001 for 12 versus FB. Statistical significance was determined by the Student's t-test.
(§4) Cell growth was assessed as described previously. Briefly, 5×10^4 cells were seeded in 6-well plates in triplicates. After 24 h, cells were treated with the indicated compounds and incubated at 37° C. The cells were cultured for 3 days and the number of viable cells was counted using the Vi-CELL XR 2.03 (Beckman Coulter, Brea, Calif.). For apoptosis, cells were analyzed by flow cytometry using the Annexin V-FITC Apoptosis Detection Kit according to the manufacturer's protocol (BD Biosciences, San Jose, Calif.).

[8] = Tolerability in tumor-bearing nude mice (body weight, maximum tolerated dose); format: in vivo
Procedure: Mice bearing HCT116 or DLD-1 CRC xenograft tumors were treated with compound 14 at 14 mg/kg or with vehicle control once per day for 5 consecutive days each week. The mouse body weight was measured twice per week in control and treated groups using a weighing scale. The results represent the mean body weight±s.e.m. (n=8 mice/group). *P>0.05 for 14 versus vehicle control in HCT116 or DLD-1 xenograft tumors. Statistical significance was determined by the Student's t-test.
Male athymic nude mice (5-6 weeks old) were purchased from Taconic (Hudson, N.Y., USA). Experiments were carried out under a protocol approved by the University of Kentucky Institutional Animal Care and Use Committee. HCT116 and DLD-1 xenograft tumors were established by subcutaneously injecting 3×10^6 cells in a 1:1 mixture of media and Matrigel (BD Biosciences) into the right flank. For efficacy studies, mice were randomized among control and treated groups (n=8 per group) when tumors were well-established (˜120 mm^3). Compound 14 was prepared freshly in saline and administered by intraperitoneal injection at 14 mg/kg once per day, Mon-Fri per week. Control mice received saline solution. Tumor dimensions were measured using a caliper and tumor volumes were calculated as mm^3=π/6× larger diameter×(smaller diameter)^2. […]

[9] = test system: HCT116 xenograft tumors; assay: HCT116 colon cancer xenograft in nude mice; format: in vivo; details: 14 mg/kg intraperitoneal, daily five days a week, 2 weeks
Procedure: (§5) Male athymic nude mice (5-6 weeks old) were purchased from Taconic (Hudson, N.Y., USA). Experiments were carried out under a protocol approved by the University of Kentucky Institutional Animal Care and Use Committee. HCT116 and DLD-1 xenograft tumors were established by subcutaneously injecting 3×10^6 cells in a 1:1 mixture of media and Matrigel (BD Biosciences) into the right flank. For efficacy studies, mice were randomized among control and treated groups (n=8 per group) when tumors were well-established (˜120 mm^3). Compound 14 was prepared freshly in saline and administered by intraperitoneal injection at 14 mg/kg once per day, Mon-Fri per week. Control mice received saline solution. Tumor dimensions were measured using a caliper and tumor volumes were calculated as mm^3=π/6× larger diameter×(smaller diameter)^2. Tumors were excised and snap frozen in liquid nitrogen, homogenized in 2% SDS lysis buffer and then processed for Western blot analysis as described previously^5.

[10] = test system: 4E-BP1 phosphorylation; assay: Western blot of xenograft tumor extracts; format: in vivo, mice; details: HCT116 or DLD-1 xenograft tumors, 6 h after the final treatment, 14 mg/kg
Procedure: FIGS. 34A-B. FB induces ROS production to repress 4E-BP1 phosphorylation and tumor growth in vivo. (A) Western blot analysis of representative tumors collected from mice in FIG. 32 6 h after the final treatment with 14 or vehicle control. (B) A proposed model for the anticancer mechanism of FB through targeting Prx1/Grx3 to induce ROS accumulation leading to inhibition of mTORC1/4E-BP1-mediated tarnaltion.
as §5

[11] = test system: DLD-1 xenograft tumors; assay: DLD-1 colon cancer xenograft in nude mice; format: in vivo; details: 14 mg/kg intraperitoneal, daily five days a week, 2 weeks
Procedure: as §5

[12] = Aqueous solubility
[13] = test system: HCT116 cells; assay: Cell growth / cytotoxicity in HCT116 cells; format: cell-based, human; details: Homo sapiens, HCT-116; colorectal cancer cell line HCT116
Procedure: as §3, §4

[14] = test system: intracellular reactive oxygen species (ROS); assay: Intracellular ROS production, CellROX Deep Red flow cytometry, HCT116 cells; format: cell-based, human
Procedure: as §3
The ROS production was determined using the CellROX Deep Red Flow Cytometry Assay Kit according to the manufacturer's protocol (Life Technologies). Briefly, cells were treated with 2 μM of the indicated compounds or DMSO as control for 1 h. After treatment, cells were incubated with 0.5 μM of CellROX Deep Red reagent for 1 h at 37° C., washed twice with PBS and immediately analyzed by a FACScan flow cytometer. For the measurement of cellular H2O2 level, cells were treated with 2 μM of the indicated compounds for 5 h.

## COc1ccc(-c2ccc3c(N4CCOC[C@@H]4C)nc(N4CCOC[C@@H]4C)nc3n2)cc1CO [AZD8055]
[1]
  inhibition of p70S6K phosphorylation: potently inhibited
[2]
  inhibition of S6 phosphorylation: potently inhibited
[3]
  inhibition of AKT phosphorylation: inhibited

## O=C1C[C@H]2O[C@@H](CCC(F)(F)F)C3=C(C(=O)c4c(Cl)ccc(O)c4C3=O)[C@H]2O1 [Compound 12, (3aR,5S,11bR)-10-Chloro-7-hydroxy-5-(3,3,3-trifluoropropyl)-3,3a,5,11b-tetrahydro-2H-benzo[g]furo[3,2-c]isochromene-2,6,11-trione]
[4]; relative to FB
  fold more potent than FB as an inhibitor of 4E-BP1 phosphorylation: up to 4 fold
[5]
  inhibition of cap-dependent translation: more potent that FB
[6]
  inhibition of Prx1 catalytic activity: potently inhibit
[7]
  induction of apoptosis compared with FB: more potent that FB

## O=C1C[C@H]2O[C@@H](CCC(F)(F)F)C3=C(C(=O)c4c(Cl)ccc(OP(=O)(O)O)c4C3=O)[C@H]2O1 [Compound 14, (3aR,5S,11bR)-10-Chloro-2,6,11-trioxo-5-(3,3,3-trifluoropropyl)-3,3a,5,6,11,11b-hexahydro-2H-benzo[g]furo[3,2-c]isochromen-7-yl dihydrogen phosphate]
[8]; 14 mg/kg once per day, 5 days each week, HCT116 or DLD-1 xenograft mice
  body weight loss: without significant weight loss; also recorded: does not cause significant weight loss
[8]; male, athymic nude, mouse, in vivo, intraperitoneal, 14 mg/kg, nude mice
  MTD: 14 mg/kg
[9]
  tumor reduction: 64%
[10]
  4E-BP1 phosphorylation in tumor extracts: inhibition of 4E-BP1 phosphorylation
[11]
  tumor reduction: 56%
[12]
  aqueous solubility: aqueous soluble

## C[C@@H]1CC(=O)[C@@H](O)[C@]2(O1)O[C@@H]1CC(=O)O[C@@H]1C1=C2C(=O)c2c(O)cccc2C1=O [GC, griseusen C]
[4]
  inhibition of 4E-BP1 phosphorylation: notable inhibition
[13]
  IC50: 0.127 µM
[14]
  ROS production compared with b47: slightly lower

## NC1(c2ccc(-c3nc4ccn5c(=O)[nH]nc5c4cc3-c3ccccc3)cc2)CCC1 [MK2206]
[4]
  inhibition of 4E-BP1 phosphorylation: negligible modulation
[3]
  inhibition of AKT phosphorylation: effective inhibition
